Measurements as given in patent US9056876B2, “Substituted 1H-pyrazolo[3′,4′,4,5]thieno[2,3-b]pyridin-3-amine analogs as positive allosteric modulators of the muscarinic acetylcholine receptor M4” (VANDERBILT UNIVERSITY, priority 2011, dated 2015).

Biological target: T1, mAChR M4 (UniProt P08173)
T1 construct: hM1 and hM4 cDNAs were purchased from Missouri S&T cDNA Resource
T1 sequence (P08173 1-479): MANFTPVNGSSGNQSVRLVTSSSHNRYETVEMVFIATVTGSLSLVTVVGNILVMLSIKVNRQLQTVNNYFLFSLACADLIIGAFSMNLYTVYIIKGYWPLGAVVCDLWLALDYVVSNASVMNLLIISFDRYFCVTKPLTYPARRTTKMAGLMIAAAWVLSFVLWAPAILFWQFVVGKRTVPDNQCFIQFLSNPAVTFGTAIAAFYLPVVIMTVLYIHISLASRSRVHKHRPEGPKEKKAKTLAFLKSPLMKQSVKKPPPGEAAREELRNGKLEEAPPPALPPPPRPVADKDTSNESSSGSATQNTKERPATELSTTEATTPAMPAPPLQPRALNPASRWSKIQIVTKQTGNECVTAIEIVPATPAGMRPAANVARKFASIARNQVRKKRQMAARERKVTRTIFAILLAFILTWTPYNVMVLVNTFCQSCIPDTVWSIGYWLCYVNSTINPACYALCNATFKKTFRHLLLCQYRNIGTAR
Assay: mAChR M4 cell-based functional assay (calcium mobilization, Fluo-4, FDSS)
Details: for Emax (%)*: % ACh maximum at 30 μM; for pEC50: positive allosteric modulator activity, EC20 acetylcholine response; for pEC50 / EC50: CHO-K1 cells; for EC50: positive allosteric modulator activity: concentration-dependent increase in the EC20 acetylcholine response, >10 μM estimated for low potency (no plateau)
Summary of the method: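 CHO-K1 cells stably expressing hM4 or rM4 with chimeric Gqi5, loaded with Fluo-4 AM for 50 min at 37° C. Calcium read on FDSS 6000 over 300 s: compound added at 4 s, acetylcholine EC20 at 144 s and EC80 at 230 s. Agonist, PAM (EC20 increase) and antagonist (EC80 decrease) values fitted by four-parameter logistic.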

SMILES | Emax (%)* | pEC50 | EC50
Cc1cc(C)c2c(n1)sc1c(NCc3ccc(S(C)(=O)=O)cc3)nn(CCO)c12 [Compound 116, 2-(6,8-dimethyl-3-((4-(methylsulfonyl)benzyl)amino)-1H-pyrazolo[3′,4′:4,5]thieno[2,3-b]pyridin-1-yl)ethanol] | 73% | 7.24 | 57 nM
Cc1cc(C)c2c(n1)sc1c(N)nn(C)c12 [Compound 29, 1,6,8-trimethyl-1H-pyrazolo[3′,4′:4,5]thieno[2,3-b]pyridin-3-amine] | 49% | <5.00 | > 10000 nM
COc1ccc(CNc2nn(C)c3c2sc2nc(C)cc(C)c23)cc1 [Compound 38, N-(4-methoxybenzyl)-1,6,8-trimethyl-1H-pyrazolo[3′,4′:4,5]thieno[2,3-b]pyridin-3-amine] | 72% | 6.66 | 220 nM
Cc1cc(C)c2c(n1)sc1c(NCc3ccc(S(C)(=O)=O)cc3)nn(C)c12 [Compound 75, 1,6,8-trimethyl-N-(4-(methylsulfonyl)benzyl)-1H-pyrazolo[3′,4′:4,5]thieno[2,3-b]pyridin-3-amine] | 73% | 6.60 | 250 nM
Cc1cc(C)c2c(n1)sc1c(NC(=O)c3ccccc3)n[nH]c12 [Compound 130, N-(6,8-dimethyl-1H-pyrazolo[3′,4′:4,5]thieno[2,3-b]pyridin-3-yl)benzamide] |  | <5.00 | > 10000 nM
Cc1ccc2c(n1)sc1c(NCc3ccccc3)nn(C)c12 [Compound 53, N-benzyl-1,6-dimethyl-1H-pyrazolo[3′,4′:4,5]thieno[2,3-b]pyridin-3-amine] | 70% | 6.08 | 840 nM
CC(=O)Nc1n[nH]c2c1sc1nc(C)cc(C)c12 [Compound 126, N-(6,8-dimethyl-1H-pyrazolo[3′,4′:4,5]thieno[2,3-b]pyridin-3-yl)acetamide] |  | <5.00 | > 10000 nM
Cc1cc(C)c2c(n1)sc1c(NC3CCSCC3)n[nH]c12 [Compound 12, 6,8-dimethyl-N-(tetrahydro-2H-thiopyran-4-yl)-1H-pyrazolo[3′,4′:4,5]thieno[2,3-b]pyridin-3-amine] | 38% | 5.36 | 4390 nM
Cc1cc(C)c2c(n1)sc1c(NCC3CC3)n[nH]c12 [Compound 7, N-(cyclopropylmethyl)-6,8-dimethyl-1H-pyrazolo[3′,4′:4,5]thieno[2,3-b]pyridin-3-amine] | 68% | 5.90 | 1260 nM
Cc1cc(C)c2c(n1)sc1c(NC3CCCNC3)n[nH]c12 (centres unmarked) [Compound 136, 6,8-dimethyl-N-(piperidin-3-yl)-1H-pyrazolo[3′,4′:4,5]thieno[2,3-b]pyridin-3-amine] |  | <5.00 | > 10000 nM
Cc1cc(C)c2c(n1)sc1c(NC3CCSCC3)nn(CCO)c12 [Compound 114, 2-(6,8-dimethyl-3-((tetrahydro-2H-thiopyran-4-yl)amino)-1H-pyrazolo[3′,4′:4,5]thieno[2,3-b]pyridin-1-yl)ethanol] | 70% | 6.43 | 370 nM
Cc1nc2sc3c(NCc4ccccc4)n[nH]c3c2c(C)c1Cl [Compound 16, N-benzyl-7-chloro-6,8-dimethyl-1H-pyrazolo[3′,4′:4,5]thieno[2,3-b]pyridin-3-amine] | 32% | <5.00 | > 10000 nM
Cc1cc(C)c2c(n1)sc1c(NC3CCN(C(C)C)CC3)n[nH]c12 [Compound 131, N-(1-isopropylpiperidin-4-yl)-6,8-dimethyl-1H-pyrazolo[3′,4′:4,5]thieno[2,3-b]pyridin-3-amine] |  | <5.00 | > 10000 nM
Cc1nc2sc3c(N)nn(C)c3c2c(C)c1Cl [Compound 23, 7-chloro-1,6,8-trimethyl-1H-pyrazolo[3′,4′:4,5]thieno[2,3-b]pyridin-3-amine] | 50% | 6.07 | 850 nM
Cc1cc(C)c2c(n1)sc1c(NCc3ccc(F)cc3)n[nH]c12 [Compound 4, N-(4-fluorobenzyl)-6,8-dimethyl-1H-pyrazolo[3′,4′:4,5]thieno[2,3-b]pyridin-3-amine] | 54% | 5.99 | 1030 nM
Cc1cc(C)c2c(n1)sc1c(NC(C)C)nn(C)c12 [Compound 41, N-isopropyl-1,6,8-trimethyl-1H-pyrazolo[3′,4′:4,5]thieno[2,3-b]pyridin-3-amine] | 87% | 6.11 | 780 nM

SMILES | Emax (%)* | pEC50 | EC50
COc1ccc(CNc2nn(C)c3c2sc2nc(C)c(Cl)c(C)c23)cc1 [Compound 18, 7-chloro-N-(4-methoxybenzyl)-1,6,8-trimethyl-1H-pyrazolo[3′,4′:4,5]thieno[2,3-b]pyridin-3-amine] | 51% | <5.00 | > 10000 nM
Cc1cc(C)c2c(n1)sc1c(NCc3ccco3)n[nH]c12 [Compound 35, N-(furan-2-ylmethyl)-6,8-dimethyl-1H-pyrazolo[3′,4′:4,5]thieno[2,3-b]pyridin-3-amine] | 80% | 5.92 | 1200 nM
Cc1cc(C)c2c(n1)sc1c(NC(=O)c3ccc(F)cc3)n[nH]c12 [Compound 128, N-(6,8-dimethyl-1H-pyrazolo[3′,4′:4,5]thieno[2,3-b]pyridin-3-yl)-4-fluorobenzamide] |  | <5.00 | > 10000 nM
Cc1cc(C)c2c(n1)sc1c(NC3CCCN(C(=O)OC(C)(C)C)C3)n[nH]c12 (centres unmarked) [Compound 135, tert-butyl 3-((6,8-dimethyl-1H-pyrazolo[3′,4′:4,5]thieno[2,3-b]pyridin-3-yl)amino)piperidine-1-carboxylate] |  | <5.00 | > 10000 nM
Cc1cc(C)c2c(n1)sc1c(NCc3ccccc3F)nn(C)c12 [Compound 57, N-(2-fluorobenzyl)-1,6,8-trimethyl-1H-pyrazolo[3′,4′:4,5]thieno[2,3-b]pyridin-3-amine] | 70% | 6.72 | 190 nM
Cc1ccc2c(n1)sc1c(NCc3ccco3)n[nH]c12 [Compound 44, N-(furan-2-ylmethyl)-6-methyl-1H-pyrazolo[3′,4′:4,5]thieno[2,3-b]pyridin-3-amine] | 62% | 5.30 | 5000 nM
Cc1cc(C)c2c(n1)sc1c(NCCC(C)C)n[nH]c12 [Compound 3, N-isopentyl-6,8-dimethyl-1H-pyrazolo[3′,4′:4,5]thieno[2,3-b]pyridin-3-amine] | 46% | 5.91 | 1240 nM
Cc1cc(C)c2c(n1)sc1c(NCc3cc(C#N)ccc3F)nn(C)c12 [Compound 91, 4-fluoro-3-(((1,6,8-trimethyl-1H-pyrazolo[3′,4′:4,5]thieno[2,3-b]pyridin-3-yl)amino)methyl)benzonitrile] | 57% | 6.66 | 220 nM
Cc1cc(C)c2c(n1)sc1c(NCC3CC3)nn(C)c12 [Compound 30, N-(cyclopropylmethyl)-1,6,8-trimethyl-1H-pyrazolo[3′,4′:4,5]thieno[2,3-b]pyridin-3-amine] | 73% | 6.80 | 160 nM
Cc1cc(C)c2c(n1)sc1c(NC3CCCC3)nn(CCO)c12 [Compound 107, 2-(3-(cyclopentylamino)-6,8-dimethyl-1H-pyrazolo[3′,4′:4,5]thieno[2,3-b]pyridin-1-yl)ethanol] | 65% | 6.70 | 200 nM
Cc1cc(C)c2c(n1)sc1c(NCc3cc4ccccc4n3C)nn(C)c12 [Compound 89, 1,6,8-trimethyl-N-((1-methyl-1H-indo1-2-yl)methyl)-1H-pyrazolo[3′,4′:4,5]thieno[2,3-b]pyridin-3-amine] | 51% | <5.00 | > 10000 nM
Cc1ccc2c(n1)sc1c(NC(=O)c3ccccc3)n[nH]c12 [Compound 150, N-(6-methyl-1H-pyrazolo[3′,4′:4,5]thieno[2,3-b]pyridin-3-yl)benzamide] |  | <5.00 | > 10000 nM
Cc1nc2sc3c(NCc4ccccc4)nn(C)c3c2c(C)c1Cl [Compound 17, N-benzyl-7-chloro-1,6,8-trimethyl-1H-pyrazolo[3′,4′:4,5]thieno[2,3-b]pyridin-3-amine] | 39% | <5.00 | > 10000 nM
COc1ccc(CNc2nn(C)c3c2sc2nc(C)ccc23)cc1 [Compound 55, N-(4-methoxybenzyl)-1,6-dimethyl-1H-pyrazolo[3′,4′:4,5]thieno[2,3-b]pyridin-3-amine] | 63% | 6.02 | 960 nM
Cc1ccc2c(n1)sc1c(NCC3CC3)nn(C)c12 [Compound 51, N-(cyclopropylmethyl)-1,6-dimethyl-1H-pyrazolo[3′,4′:4,5]thieno[2,3-b]pyridin-3-amine] | 73% | 5.89 | 1300 nM
